PMC5047629, “Synthesis, Pharmacological Profile and Docking Studies of New Sulfonamides Designed as Phosphodiesterase-4 Inhibitors” (PLoS ONE, 2016)
pIC50: −log10 of the molar value.

Assays:
[1] = tested on: A/J mice; test: LPS-induced lung inflammation and airway hyper-reactivity; assay type: in vivo; conditions: LASSBio-448 2.5 and 10 mg/kg oral, cilomilast 1 mg/kg oral, 1 h before LPS, 24 h post-challenge
Experimental: A/J mice were anesthetized with isoflurane aerosol and then challenged with LPS (25μg/25 μL) or phosphate buffered solution (PBS) by intranasal instillation as reported. The analyses were performed 24 h after stimulation. Treatment with LASSBio-448 (2.5–10 mg/kg/mice) or cilomilast (1 mg/kg) was performed orally, 1 h before LPS exposure. LASSBio-448 was dissolved in 0.2% Tween 80, while cilomilast was dissolved in 1 M NaOH and further neutralized with 1 N HCl, before adjusting the final volume with 0.9% NaCl solution (saline). The substances were dissolved immediately before use.
Airflow and transpulmonary pressure were recorded with a Buxco pulmonary mechanics processing system (Buxco Electronics, Sharon, CT), which calculated resistance (cmH2O.s/ml) and dynamic lung compliance (mL/cmH2O) in each breath cycle. Elastance was calculated as the inverse of compliance values. Mice were anesthetized with nembutal (60 mg/kg), and the neuromuscular activity was blocked with bromide pancuronium (1 mg/kg). Animals were allowed to stabilize for 5 min and increasing concentrations of methacholine (3–27 mg/mL) were aerosolized for 5 min each. Baseline pulmonary parameters were assessed with aerosolized phosphate buffer solution (PBS).
The MPO activity present in the lung tissue was colorimetrically determined as described by Hirano (1996), with minor changes. Briefly, after lung perfusion with 20 mM EDTA in 0.9% saline, lung samples were homogenized in Hank´s balanced solution (HBSS) at pH 7.4. The homogenates were centrifuged for 10 min at 1300 xg and 4°C. Red blood cells were removed by hypotonic and hypertonic lysis and suspended cells were re-centrifuged as described above. The pellet was then suspended in HBSS at pH 7.4 containing 0.5% hexadecyltrimethyl ammonium bromide (HTAB). The homogenates were centrifuged for 30 min at 12500 xg and 4°C. The supernatants were then collected and incubated with 0.167 mg/mL of ortho-dianisidine dihydrochloride for 15 min at 37°C, after which 0.0006% H2O2 in 50 mM phosphate buffer at pH 6 was added. The reaction was stopped 10 min later by adding 50 μL of 1% sodium azide. The measurement was done at 460 nm using the SpectraMax M5 microplate reader (Molecular Devices).

[2] = tested on: A/J mice; test: Duration of xylazine/ketamine anesthesia (behavioral correlate of emesis); assay type: in vivo; conditions: 5.8 μmol/kg oral; n = 5; P<0.01
Experimental: This assessment was carried out as previously reported. […] The animals were placed in dorsal position and their spontaneous return to the prone position was used as an endpoint to determine anesthesia duration.

[3] = tested on: PDE3; test: PDE3 activity inhibition; assay type: biochemical

Question: Which “LPS-induced airway hyper-reactivity (lung elastance after methacholine 3–27 mg/ml)” value ([1]; Fig 9A) does the source give for COc1ccc([C@]2(C#N)CC[C@@H](C(=O)O)CC2)cc1OC1CCCC1 [cilomilast, reference compound] here?
Answer: Its value is “blockade”.

Question: And the “neutrophil infiltration into the lung tissue (MPO activity)” value ([1]; Fig 9B)?
Answer: The value was “blockade”.

Question: And the “reduction of sleep time (duration of xylazine/ketamine anesthesia)” value [2]?
Answer: The value was 28.4%.

Question: With Cc1[nH]c(=O)c(C#N)cc1-c1ccncc1 [milrinone, reference compound] as the molecule, how does the pIC50 [3] read?
Answer: Its pIC50 is 5.49.
